Experiments:
DU145TXR = test: Resensitization of DU145TXR to paclitaxel by 29 variants (MTT cell viability); type: cell-based, human; conditions: for Fold vs PTX ÷ 29: compared to parental compound 29
Excerpt: The Group 1 ChemGen/docking routine produced variants of P-gp inhibitor 29 resensitize a multidrug resistant, P-gp overexpressing prostate cancer cell line to paclitaxel. The mitochondrial reduction potential of cells is often used as an indicator for cell viability using MTT assays^40-42. Using these assays it was observed that the five Group 1 derivatives of 29 predicted through the ChemGen/docking routine and synthesized here, 216, 227, 231, 541 and 551, re-sensitized the P-gp overexpressing prostate cancer cell line, DU145TXR^33, to the chemotherapeutic, paclitaxel (FIG. 9, showing results of assays at concentrations of 3 μM, 5 μM, 7 μM, and 10 μM).
Cytotoxicity of the chemotherapeutic, paclitaxel (PTX) to P-gp overexpressing prostate cancer cells, DU145TXR, was determined in the absence and presence of the ChemGen designed 29-variants, 216, 227, 231, 541 and 551. For each experimental compound IC50 values of PTX alone or in the presence of inhibitors, fold improvement of PTX sensitivity in the presence of inhibitor, and fold improvement of PTX sensitivity by variants compared to parental compound 29 are given.

[1] = biological target: T1, Cysteineless Mouse MDR3 P-glycoprotein (Mus musculus, UniProt P21447, C1070A/C1121A/C1223A/C133A/C427A/C638A/C669A/C713A/C952A); test: ATP hydrolysis by purified P-glycoprotein, basal and verapamil-stimulated; type: biochemical; conditions: for Stimulated ATPase (% of DMSO): in the presence of verapamil; for Stimulated ATPase (% of DMSO) / Basal ATPase (% of DMSO): ± standard deviation; for Basal ATPase (% of DMSO) / Effect on basal ATPase: without added transport substrate
T1 construct: made in house; host or cells: Pichia pastoris
T1 sequence (P21447 whole entry C133A/C427A/C638A/C669A/C713A/C952A/C1070A/C1121A/C1223A): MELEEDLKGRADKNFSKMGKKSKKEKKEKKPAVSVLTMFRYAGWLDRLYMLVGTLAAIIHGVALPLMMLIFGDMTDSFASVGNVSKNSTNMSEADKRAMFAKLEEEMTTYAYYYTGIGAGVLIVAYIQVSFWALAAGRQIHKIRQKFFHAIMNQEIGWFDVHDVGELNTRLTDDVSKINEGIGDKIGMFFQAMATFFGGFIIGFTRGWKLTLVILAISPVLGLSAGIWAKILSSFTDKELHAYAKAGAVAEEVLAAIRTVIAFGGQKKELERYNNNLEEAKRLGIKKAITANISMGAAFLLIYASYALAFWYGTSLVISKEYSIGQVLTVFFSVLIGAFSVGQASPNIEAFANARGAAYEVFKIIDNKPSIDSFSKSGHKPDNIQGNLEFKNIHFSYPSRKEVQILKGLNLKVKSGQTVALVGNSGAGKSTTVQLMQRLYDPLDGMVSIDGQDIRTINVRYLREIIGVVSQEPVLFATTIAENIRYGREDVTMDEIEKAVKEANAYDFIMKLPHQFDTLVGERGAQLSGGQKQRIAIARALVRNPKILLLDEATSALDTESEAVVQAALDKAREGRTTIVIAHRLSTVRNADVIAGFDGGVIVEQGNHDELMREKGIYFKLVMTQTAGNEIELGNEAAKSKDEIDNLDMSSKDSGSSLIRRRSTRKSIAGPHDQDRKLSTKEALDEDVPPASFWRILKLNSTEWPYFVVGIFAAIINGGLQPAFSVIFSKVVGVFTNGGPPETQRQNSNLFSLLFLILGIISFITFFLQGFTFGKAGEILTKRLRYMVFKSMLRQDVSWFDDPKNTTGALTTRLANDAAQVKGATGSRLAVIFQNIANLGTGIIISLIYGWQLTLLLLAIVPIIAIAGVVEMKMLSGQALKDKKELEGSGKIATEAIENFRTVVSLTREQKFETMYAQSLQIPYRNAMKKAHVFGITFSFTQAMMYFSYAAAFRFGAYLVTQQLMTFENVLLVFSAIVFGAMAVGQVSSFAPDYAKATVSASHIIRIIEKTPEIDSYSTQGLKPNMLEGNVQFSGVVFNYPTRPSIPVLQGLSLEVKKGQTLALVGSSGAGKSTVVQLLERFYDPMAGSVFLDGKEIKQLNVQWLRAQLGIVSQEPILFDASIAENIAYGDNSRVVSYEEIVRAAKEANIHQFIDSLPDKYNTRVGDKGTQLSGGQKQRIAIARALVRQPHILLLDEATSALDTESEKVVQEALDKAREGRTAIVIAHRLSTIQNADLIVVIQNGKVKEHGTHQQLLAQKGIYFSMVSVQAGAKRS
Excerpt: The efficacy of molecules identified using in silico methods to function as potential inhibitors of P-glycoprotein was initially tested with regard to their capability to inhibit ATP hydrolysis by purified P-glycoprotein. For this purpose, a well-established activity assay for ATP hydrolyzing enzymes that uses the oxidation of NADH to NAD+ through coupling the reactions of pyruvate kinase and lactate dehydrogenase to the hydrolysis of ATP was adapted to medium throughput conditions on 96 well plates. […] In this set-up, the effects of potential small molecule inhibitors on the ATP hydrolysis activity of P-glycoprotein were tested in duplicate or triplicate and were repeated at least two times using different enzyme preparations.
The P-glycoprotein used in these assays was a close relative of the human P-glycoprotein that is found in mice. A mutant version of the mouse P-glycoprotein where all intrinsic cysteine amino acids had been replaced by alanine residues was recombinantly expressed in the yeast Pichia pastoris and used for these initial tests. […] Prior to testing the ATP-hydrolysis activity, P-glycoprotein was incubated with phosphatidyl choline for stabilization of the enzyme during the assay.
Different concentrations of the to-be-tested small molecules were added and pre-incubated at 37° C. The ATP hydrolysis reaction was then started by adding equal volume of double concentrated ATPase cocktail. The final ATP concentration in the reaction was 2 mM. The reaction was allowed to proceed for 20 minutes, the rate of ATP hydrolysis was calculated using the molar extinction coefficient of NADH, and the one-to-one relationship of ATP hydrolyzed and NADH oxidized.
Evaluation of mode of inhibition of P-glycoprotein by Group 1 and Group 2 variants of compound 29. To assess the mode of inhibition of P-gp by the novel variants of P-gp inhibitor 29, ATP hydrolysis by P-gp was evaluated in the presence or absence of the variants. […] Murine P-gp (MDR3) expressed in Pichia pastoris that had all naturally occurring cysteines replaced with alanine, was used^45, 46. It is widely assumed that the ATP hydrolytic rate of P-gp is stimulated in the presence of transport substrates when compared to ATP hydrolysis in the absence of transport substrates. Assays comparing these rates can therefore be useful not only in identifying inhibitors of P-gp catalyzed ATP hydrolysis, but also to potentially infer whether a compound might be a transport substrate if basal ATPase rates are stimulated by the addition of a compound.

[2] = biological target: Normal Human MDR1 P-glycoprotein (Homo sapiens, UniProt P08183); test: ATP hydrolysis by human P-gp assembled into membrane nanodiscs; type: biochemical; conditions: human MDR1 P-gp in nanodiscs
Normal Human MDR1 P-glycoprotein, sequence (P08183 whole entry): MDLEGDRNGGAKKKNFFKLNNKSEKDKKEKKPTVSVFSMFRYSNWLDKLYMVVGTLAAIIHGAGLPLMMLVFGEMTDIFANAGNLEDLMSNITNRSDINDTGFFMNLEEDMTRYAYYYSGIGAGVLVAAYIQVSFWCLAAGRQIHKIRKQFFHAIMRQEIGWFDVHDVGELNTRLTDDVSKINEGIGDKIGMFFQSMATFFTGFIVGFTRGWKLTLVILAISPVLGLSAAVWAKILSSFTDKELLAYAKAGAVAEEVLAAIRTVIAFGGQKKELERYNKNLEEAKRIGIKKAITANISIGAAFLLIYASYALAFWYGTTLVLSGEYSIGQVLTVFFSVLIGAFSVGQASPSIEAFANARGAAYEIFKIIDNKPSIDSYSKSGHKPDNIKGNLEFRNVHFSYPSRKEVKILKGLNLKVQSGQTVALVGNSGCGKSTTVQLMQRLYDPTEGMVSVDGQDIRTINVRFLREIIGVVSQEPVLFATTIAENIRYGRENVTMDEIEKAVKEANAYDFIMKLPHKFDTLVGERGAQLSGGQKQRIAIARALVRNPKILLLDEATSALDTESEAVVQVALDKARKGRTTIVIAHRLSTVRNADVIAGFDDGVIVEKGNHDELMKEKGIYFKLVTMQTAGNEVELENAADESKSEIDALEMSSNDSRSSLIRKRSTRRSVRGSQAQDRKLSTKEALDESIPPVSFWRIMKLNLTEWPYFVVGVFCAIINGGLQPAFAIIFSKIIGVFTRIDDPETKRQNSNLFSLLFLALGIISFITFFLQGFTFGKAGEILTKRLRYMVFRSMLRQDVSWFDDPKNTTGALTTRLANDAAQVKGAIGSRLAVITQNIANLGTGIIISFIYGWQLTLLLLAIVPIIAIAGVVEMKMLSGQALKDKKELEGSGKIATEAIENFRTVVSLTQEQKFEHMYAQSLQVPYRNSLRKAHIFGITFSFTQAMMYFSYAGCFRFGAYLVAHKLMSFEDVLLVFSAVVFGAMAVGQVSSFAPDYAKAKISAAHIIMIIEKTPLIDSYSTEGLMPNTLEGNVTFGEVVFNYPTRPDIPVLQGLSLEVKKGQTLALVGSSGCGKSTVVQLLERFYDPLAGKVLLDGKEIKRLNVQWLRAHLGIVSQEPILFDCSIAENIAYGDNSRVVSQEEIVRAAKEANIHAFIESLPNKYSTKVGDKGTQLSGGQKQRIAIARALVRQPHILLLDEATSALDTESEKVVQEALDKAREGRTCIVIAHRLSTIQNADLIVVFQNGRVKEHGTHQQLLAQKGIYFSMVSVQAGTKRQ
Excerpt: To assess whether the observed discrepancies of compounds stimulating basal P-gp ATPase activity but not being transport substrates of the human pump in the cell culture assessments were due to the fact that these biochemical assays used a cysteineless variant of the mouse MDR3 P-glycoprotein, the experiments were repeated using normal human MDR1 P-gp. In order to stabilize the human protein for the activity assays, the protein was assembled into membrane nanodiscs as described herein.

[3] = biological target: T1, Cysteineless Mouse MDR3 P-glycoprotein; test: SL-ATP binding to P-gp by ESR spectroscopy; conditions: SL-ATP titration in presence of compound
Excerpt: Determination of the possible mode of ATP hydrolysis inhibition by the identified P-glycoprotein inhibitors. The mode of hydrolysis of ATP by P-glycoprotein was investigated by measuring the maximal binding stoichiometry and binding affinity of an analog of ATP, SL-ATP, and by Electron Spin Resonance (ESR) spectroscopy, similar to in both the presence and absence of the identified inhibitors.
The high-field signal of the freely mobile, unbound SL-ATP is compared and is used to calculate the amount of ATP-analog bound to P-glycoprotein. Binding of SL-ATP in the absence of any P-glycoprotein inhibitor saturated at about 2 mol of SL-nucleotide bounds per mol of P-glycoprotein.
FIGS. 2A-2D are plots showing the effects of P-glycoprotein ATP hydrolysis inhibitors on nucleotide binding. Between 30 and 50 microM Pgp were incubated with 50 microM inhibitor compound. Increasing amounts of SL-ATP were added. The ESR signal of the free SL-ATP in the presence of P-glycoprotein and inhibitor was compared to that in the absence of P-glycoprotein. The graphs represent at least 3 individual studies each using 3 to 5 different P-glycoprotein preparations.

P-gp = P-gp (Homo sapiens, UniProt P08183); conditions: for Transport substrate for P-gp: not told
P-gp, sequence (P08183 whole entry): as above
Protocol: Stimulation of basal ATPase by 29-variants was used as an indicator that a compound may be a P-gp transport substrate. Effects on stimulated P-gp ATPase activity indicated whether a compound directly interfered with ATP usage by the protein (***, p<0.001; **, p<0.01; *, p<0.1; NS, not significant). Quantitative cellular accumulation of 29-variants was performed using LC-MS/MS and is presented as a ratio of the cellular amounts of 29-variants in the presence of P-gp inhibitor, tariquidar, divided by amounts accumulated in its absence. […] Binding of an ATP analog, SL-ATP, to P-gp was used to determine whether ATP binding to P-gp was affected by the 29-variants. Values+/−standard deviations are shown for at least three different P-gp preparations and three independent SL-ATP titration experiments. The values for SL-ATP binding in the presence of 29 were taken directly from Brewer et al. (2014).
Intracellular accumulation of compound 29 variants. Cell accumulation assays for each of the 29 variants were performed as in reference^28 to more directly assess whether the compounds were indeed transport substrates for P-gp.

[4] = 3 μM inhibitor, fold improvement of PTX sensitivity vs PTX alone

Cc1cc(C)c(-c2cc(NC(=O)CSCC(=O)Nc3ccc4ccccc4c3)n(-c3ccccc3)n2)cc1C [SMU29-231]
Fold vs PTX ÷ 29 (DU145TXR; 3 μM inhibitor, listed as 231): 4.1 Fold
Fold vs PTX (DU145TXR; [4]): 14 Fold
Fold vs PTX ÷ 29 (DU145TXR; 5 μM inhibitor): 4.2 Fold
Fold vs PTX (DU145TXR; 5 μM inhibitor, vs PTX alone): 46 Fold
Fold vs PTX ÷ 29 (DU145TXR; 7 μM inhibitor): 3.4 Fold
Fold vs PTX (DU145TXR; 7 μM inhibitor, vs PTX alone): 303 Fold
Fold vs PTX ÷ 29 (DU145TXR; 10 μM inhibitor): 11 Fold
Fold vs PTX (DU145TXR; 10 μM inhibitor, vs PTX alone): 1060 Fold
Stimulated ATPase (% of DMSO) [1]: 141 ± 18 % of DMSO
Basal ATPase (% of DMSO) [1]: 70 ± 0 % of DMSO
Basal ATPase (% of DMSO) [2]: 70 ± 4 % of DMSO
Stimulated ATPase (% of DMSO) [2]: 40 ± 3 % of DMSO
Maximum ATP binding mol SL-ANP bound/mol P-gp [3]: 1.6 ± 0.1 mol SL-ANP bound/mol P-gp

COc1cccc2c1C(=O)c1c(O)c3c(c(O)c1C2=O)C[C@@](O)(C(C)=O)C[C@@H]3O[C@H]1C[C@H](N)[C@H](O)[C@H](C)O1 [DNR, Daunorubicin, reference compound]
Intracellular accumulation in the presence versus absence of TQR (P-gp): very strong cellular accumulation

COc1cc(NC(=O)CSCC(=O)Nc2cc(-c3cc(C)c(C)cc3C)nn2-c2ccccc2)cc(OC)c1OC [SMU29-238]
Stimulated ATPase (% of DMSO) [1]: 194 ± 22 % of DMSO
Basal ATPase (% of DMSO) [1]: 1143 ± 46 % of DMSO
Intracellular accumulation in the presence versus absence of TQR (P-gp): very large and significant increase
Transport substrate for P-gp (P-gp): very likely to be transport substrates
Basal ATPase (% of DMSO) [2]: 89 ± 7 % of DMSO
Stimulated ATPase (% of DMSO) [2]: 61 ± 7 % of DMSO
Maximum ATP binding mol SL-ANP bound/mol P-gp [3]: 1.2 ± 0.1 mol SL-ANP bound/mol P-gp

Cc1cc(C)c(-c2cc(NC(=O)CSCC(=O)N3c4ccccc4CCc4ccccc43)n(-c3ccccc3)n2)cc1C [SMU29-227]
Fold vs PTX ÷ 29 (DU145TXR; 3 μM inhibitor, listed as 227): 3.8 Fold
Fold vs PTX (DU145TXR; [4]): 13 Fold
Fold vs PTX ÷ 29 (DU145TXR; 5 μM inhibitor): 3.7 Fold
Fold vs PTX (DU145TXR; 5 μM inhibitor, vs PTX alone): 41 Fold
Fold vs PTX ÷ 29 (DU145TXR; 7 μM inhibitor): 10 Fold
Fold vs PTX (DU145TXR; 7 μM inhibitor, vs PTX alone): 353 Fold
Fold vs PTX ÷ 29 (DU145TXR; 10 μM inhibitor): 5 Fold
Fold vs PTX (DU145TXR; 10 μM inhibitor, vs PTX alone): 530 Fold
Stimulated ATPase (% of DMSO) [1]: 50 ± 2 % of DMSO
Basal ATPase (% of DMSO) [1]: 88 ± 4 % of DMSO
Basal ATPase (% of DMSO) [2]: 83 ± 7 % of DMSO
Stimulated ATPase (% of DMSO) [2]: 62 ± 5 % of DMSO
Maximum ATP binding mol SL-ANP bound/mol P-gp [3]: 1.8 ± 0.1 mol SL-ANP bound/mol P-gp

Cc1cc(C)c(-c2cc(NC(=O)CSCC(=O)NCc3ccc(F)cc3)n(-c3ccccc3)n2)cc1C [SMU29-286]
Stimulated ATPase (% of DMSO) [1]: 98 ± 2 % of DMSO
Effect on basal ATPase ([1]; listed as 286): stimulated basal ATPase only marginally or with no statistical significance
Basal ATPase (% of DMSO) [1]: 143 ± 32 % of DMSO
Intracellular accumulation in the presence versus absence of TQR (P-gp): more modest, but statistically significant increases
Transport substrate for P-gp (P-gp): very likely to be transport substrates
Basal ATPase (% of DMSO) [2]: 95 ± 3 % of DMSO
Stimulated ATPase (% of DMSO) [2]: 59 ± 4 % of DMSO
Maximum ATP binding mol SL-ANP bound/mol P-gp [3]: 1.9 ± 0.1 mol SL-ANP bound/mol P-gp

Cc1cc(C)c(-c2cc(NC(=O)CSCC(=O)NC34CC5CC(CC(C5)C3)C4)n(-c3ccccc3)n2)cc1C [SMU29-278]
Stimulated ATPase (% of DMSO) [1]: 41 ± 7 % of DMSO
Basal ATPase (% of DMSO) [1]: 78 ± 4 % of DMSO
Intracellular accumulation in the presence versus absence of TQR (P-gp): did not show significantly different intracellular accumulations
Transport substrate for P-gp (P-gp): very unlikely to be a transport substrate
Basal ATPase (% of DMSO) [2]: 74 ± 6 % of DMSO
Stimulated ATPase (% of DMSO) [2]: 63 ± 6 % of DMSO
Maximum ATP binding mol SL-ANP bound/mol P-gp [3]: 1.3 ± 0.1 mol SL-ANP bound/mol P-gp

Cc1cc(C)c(-c2cc(NC(=O)CSCC(=O)NC(c3ccccc3)c3ccccc3)n(-c3ccccc3)n2)cc1C [SMU29-280]
Stimulated ATPase (% of DMSO) [1]: 116 ± 4 % of DMSO
Effect on basal ATPase ([1]; listed as 280): stimulated basal ATPase only marginally or with no statistical significance
Basal ATPase (% of DMSO) [1]: 148 ± 4 % of DMSO
Intracellular accumulation in the presence versus absence of TQR (P-gp): did not show significantly different intracellular accumulations
Basal ATPase (% of DMSO) [2]: 76 ± 8 % of DMSO
Stimulated ATPase (% of DMSO) [2]: 54 ± 7 % of DMSO
Maximum ATP binding mol SL-ANP bound/mol P-gp [3]: 1.6 ± 0.1 mol SL-ANP bound/mol P-gp

Reference: US20220175777A1, “Inhibitors of Multidrug Resistance Transporter P-Glycoprotein” (Southern Methodist University, priority 2014, published 2022)
